From paper PMC10208570, “Peptidomimetic antibiotics disrupt the lipopolysaccharide transport bridge of drug-resistant Enterobacteriaceae” (Science Advances, 2023)
Values after ≈ are worked out from the molar mass of the structure shown. Where two headings read alike, the source gives them in different places. Where a SMILES comes first, the peptide text is derived from it. Bridges are numbered along the chain shown (N, C = ends). [ ]: non-standard residue; d: D form. Pen = CC(C)(S)[C@H](N)C(=O)O; dDab = NCC[C@@H](N)C(=O)O; Dab = NCC[C@H](N)C(=O)O

Tests used:
in vitro = assay type: cell-based; conditions: human
Description: The cytotoxicity of compounds was determined by determining the number of viable cells using the Sigma Cell Counting Kit-8 (WST-8). HeLa cells were incubated at 37°C and 5% CO2 for 24 hours, after which the medium was replaced with fresh medium containing dilutions of compounds. […]

[1] = tested on: E. coli ATCC 25922 (parent / WT); assay: microbe, parasite or virus in culture; conditions: for MIC: Escherichia coli
Description: (§1) MIC assays [Clinical and Laboratory Standards Institute (CLSI) methodology] and serial passage studies were performed as described by Luther et al. ([6]). […] Resistant mutants were isolated, and their MIC values were determined and sent to Microbes NG (Birmingham, United Kingdom) for whole-genome sequencing and bioinformatic analysis.

[2] = tested on: K. pneumoniae ATCC 43816 (parent / WT); assay: microbe, parasite or virus in culture; conditions: for MIC: Klebsiella pneumoniae
Description: as §1

[3] = tested on: E. coli ATCC 25922 LptA Q62L mutant; assay: microbe, parasite or virus in culture; conditions: for MIC: Escherichia coli
Description: as §1

[4] = tested on: K. pneumoniae NCTC 13443 (NDM-1) LptA Q62L mutant; assay: microbe, parasite or virus in culture; conditions: for MIC: Klebsiella pneumoniae
Description: as §1

[5] = tested on: K. pneumoniae NCTC 13443 (NDM-1) (parent / WT); assay: microbe, parasite or virus in culture; conditions: for MIC: Klebsiella pneumoniae
Description: as §1

LptAm = target: T1, LptAm (Escherichia coli, UniProt P0ADV1); assay: biochemical; assay type: binding, E. coli
T1 construct: His6-GB1 (N, cleaved yes); made in house; host or cells: E. coli BL21 (DE3)
Description: (§2) Protein stocks were purified and concentrated in buffer 1 [50 mM Na-Pi (pH 7) and 150 mM NaCl] and, if necessary, diluted to desired concentrations using buffer 2 [50 mM Na-Pi (pH 7), 150 mM NaCl, and 0.05% Tween 20]. Peptide stocks and fluorescently labeled peptide stocks were made in buffer 2. Every serial dilution consisted of 24 wells, the first well with the highest concentrate and the last well (well 24) with the lowest. First, 50 μl of buffer 2 was added to the wells 2 to 24 of each serial dilution. Then, 100 μl of concentrated unlabeled peptide/protein in their respective buffers was added to the first well. Fifty microliters were taken from the first well and added to the second well for a 1:1 serial dilution and continued for the 24 wells. […] Plates were covered with adhesive seals and left to incubate overnight at 4°C before FP measurements the next day. Anisotropy was measured using the Tecan Safire2 plate reader using a 10-nm bandwidth and setting the excitation and emission wavelengths to 635 and 670 nm, respectively. The G-factor (G) was also determined empirically as 1.094 for the instrument and included in all the anisotropy calculations.
(§3) For the indirect binding assays, r was calculated in the same manner as the direct binding assays. […] The control was subtracted from r to yield r′. Data were fit to a sigmoidal interpolation model on GraphPad Prism 9, and an IC50 was generated for each unlabeled peptide or protein measured.

LptAmQ62L = target: T2, LptAmQ62L (Escherichia coli, UniProt P0ADV1, Q62L); assay: biochemical; assay type: binding, E. coli
T2 construct: His6-GB1 (N, cleaved yes); made in house; host or cells: E. coli BL21 (DE3)
Description: as §2, §3

human red blood cells = assay: Haemolysis; assay type: cell-based; conditions: PBS-washed human red blood cells; 1 h at 200 mg/liter, 37°C; OD 540 nm; versus 100% lysis control 2.5% Triton X-100; biological replicates
Description: To test their hemolytic potential, compounds were incubated in the presence of phosphate-buffered saline (PBS)–washed human red blood cells. After 1-hour incubation at 200 mg/liter and 37°C, the samples were centrifuged (3220g), the supernatants were diluted in Dulbecco’s PBS, and optical density at 540 nm was determined. The hemolysis induced by the compound was calculated versus a 100% lysis control prepared with 2.5% Triton X-100 (table S4A).

[6] = tested on: Klebsiella pneumoniae NCTC 13443 LptA I36S mutant; assay: microbe, parasite or virus in culture; conditions: Klebsiella pneumoniae, NCTC13443, read-out: MIC Klebsiella pneumoniae NCTC 13443 LptA I36S (2x)
Description: as §1

[7] = tested on: Klebsiella pneumoniae ATCC 43816 LptA I36N mutant; assay: microbe, parasite or virus in culture; conditions: Klebsiella pneumoniae, ATCC43816, read-out: MIC Klebsiella pneumoniae ATCC 43816 LptA I36N (1x)
Description: as §1

[8] = tested on: Klebsiella pneumoniae NCTC 13443 YejM mutant; assay: microbe, parasite or virus in culture; conditions: Klebsiella pneumoniae, NCTC13443, read-out: MIC Klebsiella pneumoniae NCTC 13443 YejM (1x)
Description: as §1

[9] = tested on: Klebsiella pneumoniae ATCC 43816 LptA L116Q mutant; assay: microbe, parasite or virus in culture; conditions: Klebsiella pneumoniae, ATCC43816, read-out: MIC Klebsiella pneumoniae ATCC 43816 LptA L116Q (1x)
Description: as §1

[10] = tested on: Escherichia coli ATCC 25922 KdsD mutant; assay: microbe, parasite or virus in culture; conditions: Escherichia coli, ATCC25922, read-out: MIC Escherichia coli ATCC 25922 KdsD (2x)
Description: as §1

[11] = tested on: Klebsiella pneumoniae ATCC 43816 LapB mutant; assay: microbe, parasite or virus in culture; conditions: Klebsiella pneumoniae, ATCC43816, read-out: MIC Klebsiella pneumoniae ATCC 43816 LapB (1x)
Description: as §1

[12] = tested on: Klebsiella pneumoniae ATCC 43816 PglJ, PhnJ, ThiH mutant; assay: microbe, parasite or virus in culture; conditions: Klebsiella pneumoniae, ATCC43816, read-out: MIC Klebsiella pneumoniae ATCC 43816 PglJ, PhnJ, ThiH (1x)
Description: as §1

[13] = tested on: Klebsiella pneumoniae ATCC 43816 LptA I36S mutant; assay: microbe, parasite or virus in culture; conditions: Klebsiella pneumoniae, ATCC43816, read-out: MIC Klebsiella pneumoniae ATCC 43816 LptA I36S (1x)
Description: as §1

[14] = tested on: Klebsiella pneumoniae NCTC 13443 LpxC, LpxD mutant; assay: microbe, parasite or virus in culture; conditions: Klebsiella pneumoniae, NCTC13443, read-out: MIC Klebsiella pneumoniae NCTC 13443 LpxC, LpxD (1x)
Description: as §1

[15] = tested on: Escherichia coli ATCC 25922 LptA E84D mutant; assay: microbe, parasite or virus in culture; conditions: Escherichia coli, ATCC25922, read-out: MIC Escherichia coli ATCC 25922 LptA E84D (1x)
Description: as §1

[16] = tested on: K. pneumoniae ATCC 43816 LptA Q62L mutant; assay: microbe, parasite or virus in culture; conditions: Klebsiella pneumoniae
Description: as §1

[17] = tested on: K. pneumoniae 968733 (CST-R); assay: MIC assay (CLSI); assay type: cell-based, Klebsiella pneumoniae; conditions: Klebsiella pneumoniae, read-out: MIC K. pneumoniae 968733 (CST-R) Parent
Description: as §1

[18] = CLSI method, clone harboring LptA Q62L

T2 sequence (P0ADV1 28-159 Q62L): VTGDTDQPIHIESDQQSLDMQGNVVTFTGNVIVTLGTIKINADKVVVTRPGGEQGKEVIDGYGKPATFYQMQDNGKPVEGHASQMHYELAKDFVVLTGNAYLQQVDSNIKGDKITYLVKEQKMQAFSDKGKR
T1 sequence (P0ADV1 28-159): as the sequence (P0ADV1 28-159 Q62L) above, with L35Q counted along it

With `CC[C@H](C)[C@H](NC(=O)[C@@H](NC(=O)[C@@H]1CCCN1C(=O)[C@@H](NC(=O)[C@@H]1CCCN1C(=O)[C@H](CCCCN)NC(=O)[C@@H](N)CCCCN)C(C)C)[C@@H](C)CC)C(=O)N[C@@H](Cc1ccc(O)cc1)C(=O)N[C@@H]1C(=O)N[C@@H](CC(N)=O)C(=O)N[C@@H](CCCNC(=N)N)C(=O)N[C@@H](CCN)C(=O)N[C@@H]([C@@H](C)O)C(=O)N[C@H](CCN)C(=O)N[C@@H](CCCCN)C(=O)N[C@H](C(=O)N[C@@H](CCN)C(=O)N[C@@H](CCCNC(=N)N)C(=O)N[C@@H](Cc2ccc(O)cc2)C(=O)O)CSSC1(C)C` [Compound 2] (H-KKPVPIIY[Pen]NR[Dab]T[dDab]KC[Dab]RY-OH; disulfide 9-16) the IC50 at 48 h (in vitro) was 60000 nM, the “MIC E. coli ATCC 25922 Parent” value ([1]; CLSI method, parent strain) was 0.031 micrograms per milliliter and the “MIC K. pneumoniae ATCC 43816 Parent” value ([2]; CLSI method, parent strain) was 0.125 micrograms per milliliter. The “MIC E. coli ATCC 25922 Q62L mutant” value [3, 18] was 2 micrograms per milliliter, the “MIC K. pneumoniae NCTC 13443 (NDM-1) Q62L mutant” value [4, 18] was greater than 8 micrograms per milliliter and the “MIC K. pneumoniae NCTC 13443 (NDM-1) Parent” value ([5]; CLSI method, parent strain) was 0.5 micrograms per milliliter. The IC50 (LptAm) was 12.6 ± 0.7 nM, the Ki (LptAm) was 2.1 ± 0.1 nM and the IC50 (LptAmQ62L) was 19.3 ± 6.3 nM. The Ki (LptAmQ62L) was 13.1 ± 4.2 nM and the “Haemolysis % at 0.2 g/L” value (human red blood cells) was 0%.

For `CN[C@H](CC(C)C)C(=O)N[C@H]1C(=O)N[C@@H](CC(N)=O)C(=O)N[C@H]2C(=O)N[C@H]3C(=O)N[C@H](C(=O)N[C@H](C(=O)O)c4cc(O)cc(O)c4-c4cc3ccc4O)[C@H](O)c3ccc(c(Cl)c3)Oc3cc2cc(c3O[C@@H]2O[C@H](CO)[C@@H](O)[C@H](O)[C@H]2O[C@H]2C[C@](C)(N)[C@H](O)[C@H](C)O2)Oc2ccc(cc2Cl)[C@H]1O` [Vancomycin], the MIC [6] was greater than 64 µg/mL, the MIC [7] was greater than 64 µg/mL and the MIC ([1]; ATCC25922, read-out: MIC Escherichia coli ATCC 25922 WT) was greater than 64 µg/mL. For the same molecule, the MIC ([2]; ATCC43816, read-out: MIC Klebsiella pneumoniae ATCC 43816 WT) was greater than 64 µg/mL, the MIC [8] was greater than 64 µg/mL and the MIC [9] was greater than 64 µg/mL. For the same molecule, the MIC [10] was greater than 64 µg/mL, the MIC [11] was greater than 64 µg/mL and the MIC ([3]; ATCC25922, read-out: MIC Escherichia coli ATCC 25922 LptA Q62L (7x)) was greater than 64 µg/mL. It also gave an MIC [12] greater than 64 µg/mL, an MIC ([4]; NCTC13443, read-out: MIC Klebsiella pneumoniae NCTC 13443 LptA Q62L (5x)) greater than 64 µg/mL and an MIC [13] greater than 64 µg/mL. For the same molecule, the MIC [14] was greater than 64 µg/mL, the MIC [15] was greater than 64 µg/mL and the MIC ([16]; ATCC43816, read-out: MIC Klebsiella pneumoniae ATCC 43816 LptA Q62L (4x)) was greater than 64 µg/mL. It also gave an MIC ([5]; NCTC13443, read-out: MIC Klebsiella pneumoniae NCTC 13443 WT) greater than 64 µg/mL.

`CNC(C)C1CCC(N)C(OC2C(N)CC(N)C(OC3OCC(C)(O)C(NC)C3O)C2O)O1` (stereo not shown) [Gentamicin, reference compound] gave an MIC ([1]; ATCC25922, read-out: MIC E. coli ATCC 25922 Parent) of 0.5 µg/mL (≈ 1.05 µM), an MIC ([2]; ATCC43816, read-out: MIC K. pneumoniae ATCC 43816 Parent) of 0.5 µg/mL (≈ 1.05 µM) and an MIC ([3]; ATCC25922, read-out: MIC E. coli ATCC 25922 Q62L mutant) of 1 µg/mL (≈ 2.09 µM). It also gave an MIC ([4]; NCTC13443, read-out: MIC K. pneumoniae NCTC 13443 (NDM-1) Q62L mutant) greater than 8 µg/mL, an MIC ([16]; ATCC43816, read-out: MIC K. pneumoniae ATCC 43816 Q62L mutant) of 0.5 µg/mL (≈ 1.05 µM) and an MIC ([5]; NCTC13443, read-out: MIC K. pneumoniae NCTC 13443 (NDM-1) Parent) greater than 8 µg/mL. For the same molecule, the MIC [17] was 0.5 µg/mL (≈ 1.05 µM).
